Measurements taken from paper PMC12129716, “Isolation of a Unique Monoterpene Diperoxy Dimer From Ziziphora clinopodioides subsp. bungeana Together With Triterpenes With Antidiabetic Properties” (Phytochemical Analysis, 2025).
“Also recorded” adds a separate entry of the source. Like-named read-outs stand apart in the source and are kept apart here.

How the values were obtained:
α‐glucosidase [1] = test: α-Glucosidase inhibitory assay (p-nitrophenyl-α-D-glucopyranoside, microplate reader); format: biochemical; conditions: mean ± SEM, three independent experiments in triplicate
Method: After incubation (15 min, 37°C), the reaction was initiated by adding 20 μL of 2.5‐mM p‐nitrophenyl‐α‐D‐glucopyranoside. After an additional 15 min at 37°C, the reaction was stopped with 80 μL of 0.2‐M Na2CO3. The released p‐nitrophenol was quantified spectrophotometrically at λ 405 nm using a microplate reader. One set of mixtures prepared with an equivalent volume of methanol instead of the test samples was used as a control. Another set of mixtures prepared with an equivalent volume of phosphate buffer instead of the enzyme was used as a blank. The inhibition of the enzyme (%) was calculated according to the formula: […]. […] The results are summarized in Table 2 and expressed as the mean ± SEM for three independent experiments measured in triplicate.

[2] = biological target: protein tyrosine phosphatase 1B (PTP1B); conditions: cited from earlier work
L6 myotube cells = system: L6 myotube cells; set-up: method as in PMID 19548274; conditions: cited from earlier work
GLUT4 [3] = system: GLUT4; set-up: method as in PMID 17201692; conditions: 3T3-L1 adipocytes; cited from earlier work
α‐glucosidase [4] = conditions: cited from earlier work
GLUT4 [5] = test: GLUT4 translocation to plasma membrane fraction in C2C12 myotubes (Western blot); format: cell-based, mouse; conditions: 5 μM, 24 h, C2C12 differentiated myotubes, vs DMSO control
Method: The C2C12 cell line was incubated in containers with a surface area of 75 cm^2 (tissue‐culture treated) to 100% confluence in full serum DMEM High Glucose medium. Then the culture medium was changed to DMEM High Glucose medium, supplemented with antibiotics, and 2% horse serum (Biosera) to start the differentiation of myoblasts into myocytes. The medium was renewed every 2 days, and the formation of myocytes was observed using a microscope. After 6 days of differentiation, the culture medium was changed to DMEM High Glucose serum‐free medium, and the test compounds were added at a non‐toxic concentration of 5 μM dissolved in DMSO. The effect of the test compounds on the viability of C2C12 myocytes was determined using a WST‐1 kit (Roche, Basel, Switzerland), according to the manufacturer's manual. The final concentration of DMSO in the medium was 0.1% (v/v). […]
The effects of the test compounds on the protein expression of GLUT4 in the total cellular fraction and on GLUT4 translocation to the plasma membrane fraction were measured using PAGE and Western blot with specific antibodies. […]
To quantify the effects of the test compounds on GLUT4 expression and translocation, the optical densities (OD) of the corresponding bands shown by Western blot analysis were calculated and expressed as a ratio of ODGLUT4 / ODβ‐actin for GLUT4 expression in whole‐cell lysates. […]

Compound	% of inhibition (200 μM) (α‐glucosidase [1]) [%]	IC50 (α‐glucosidase [1]) [µM]	other results
C[C@@H]1[C@H](O)C[C@]2(C(=O)O)CC[C@]3(C)C(=CCC4[C@@]5(C)CC[C@H](O)C(C)(C)C5CC[C@]43C)C2[C@H]1C (stereo partly drawn) [Compound 6, 21α‐hydroxyursolic acid]	26.8 ± 2.1	> 200	–
C[C@H]1[C@H](C)CC[C@]2(C(=O)O)CC[C@]3(C)C(=CC[C@@H]4[C@@]5(C)CC[C@H](O)C(C)(C)[C@@H]5CC[C@]43C)[C@H]12 [Compound 9, ursolic acid]	65.7 ± 4.1	–	IC50 ([2]; read-out: PTP1B IC50): 3.1 ± 0.2 µM; 2-deoxy-D-[3H]-glucose uptake increase (L6 myotube cells): 1.84 fold; Translocation of GLUT4 (GLUT4 [3]): enhanced
CC1CC=C(C(C)(C)OOC23CC(C)CC=C2C(C)(C)OO3)C(=O)C1 (centres unmarked) [Compound 1, ziziphora diperoxy dimer]	6.0 ± 1.9	> 200	–
CC1(C)[C@@H](O)CC[C@]2(C)[C@H]3C(=O)C=C4[C@@H]5C[C@@](C)(C(=O)O)CC[C@]5(C)CC[C@@]4(C)[C@]3(C)CC[C@@H]12 [glycyrrhetic acid]	–	–	α-Glucosidase inhibitory activity (α‐glucosidase [4]): inactive
C=C(C)[C@@H]1CC[C@]2(C(=O)O)CC[C@]3(C)[C@H](CC[C@@H]4[C@@]5(C)CC[C@H](O)C(C)(C)[C@@H]5CC[C@]43C)[C@@H]12 [Compound 11, betulinic acid]	64.4 ± 2.0	45.3 ± 1	PTP1B IC50 [2]: 0.7 ± 0.03 µg/mL; IC50 ([2]; conversion of the μg/mL value, read-out: PTP1B IC50 (converted to μM)): 1.53 µM; GLUT4 translocation (GLUT4/ATPA1 ratio in plasma membrane fraction) (GLUT4 [5]): no activity
C=C(C)[C@@H]1CC[C@]2(CO)CC[C@]3(C)[C@H](CC[C@@H]4[C@@]5(C)CC[C@H](O)C(C)(C)[C@@H]5CC[C@]43C)[C@@H]12 [Compound 3, betulin]	24.0 ± 6.0	> 200	–
CC1=C2C=C3CCC4C(C)(C)CCC[C@@]4(C)C3CC2OC1=O (some centres unmarked) [Compound 2, jolkinolide E]	25.0 ± 1.4	> 200	–
C=C(CO)[C@@H]1CC[C@]2(C(=O)O)CC[C@]3(C)C(CCC4[C@@]5(C)CC[C@H](O)C(C)(C)C5CC[C@]43C)C12 (some centres unmarked) [Compound 4, 30‐hydroxybetulinic acid]	34.0 ± 4.9	> 200	–

The next lines start with results.

% of inhibition (200 μM) (α‐glucosidase [1]) [%]	IC50 (α‐glucosidase [1]) [µM]	Compound	other results
49.9 ± 3.3	> 200	CC1(C)CC[C@]2(C(=O)O)CC[C@]3(C)C(=CC(=O)C4[C@@]5(C)CC[C@H](O)C(C)(C)C5CC[C@]43C)C2C1 (some centres unmarked) [Compound 8, 11‐oxooleanolic acid]	–
–	163 ± 15.4	C[C@@H]1CC[C@]2(C(=O)O)CC[C@]3(C)C(=CC(=O)C4[C@@]5(C)CC[C@H](O)C(C)(C)C5CC[C@]43C)C2[C@H]1C (some centres unmarked) [Compound 7, 11‐oxoursolic acid]	–
41.9 ± 4.1	> 200	C[C@@H]1CC[C@]2(C(=O)O)CC[C@]3(C)C(=CC[C@@H]4[C@@]5(C)CC[C@H](O)C(C)(C)[C@@H]5CC[C@]43C)[C@@H]2[C@]1(C)O [Compound 5, pomolic acid]	IC50 ([2]; read-out: PTP1B IC50): 3.9 ± 0.8 µM; GLUT4 translocation (GLUT4/ATPA1 ratio in plasma membrane fraction) (GLUT4 [5]): increased; also recorded: tripling; 2-deoxy-D-[3H]-glucose uptake increase (L6 myotube cells): 1.6 fold
67.5 ± 1.4	–	CC1(C)CC[C@]2(C(=O)O)CC[C@]3(C)C(=CC[C@@H]4[C@@]5(C)CC[C@H](O)C(C)(C)[C@@H]5CC[C@]43C)[C@@H]2C1 [Compound 10, oleanolic acid]	–
